From patent US12448400B2, “KRAS G12D modulating compounds” (priority 2023, dated 2025)
Like-named read-outs stand apart in the source and are kept apart here.

Columns and labels:
[1] = test system: GP2D (KRAS G12D) cells; experiment: 2D cell viability assay (CellTiter-Glo); assay type: cell-based; conditions: GP2D cells, 4 days, CellTiter-Glo luminescence, read-out: G12D 2D EC50
Protocol: Example B. 2D Cell Viability Assay
Compounds were tested in a 384-well format for their ability to inhibit the viability of GP2D (KRAS G12D) cells in 2D assays. Compounds were serially diluted (1:3) in DMSO. The LabCyte ECHO Acoustic dispenser system was used to pre-spot assay plates with 200 nL of test molecule per well. 1000 cells/well (40 μL volume per well) in RPMI medium with 10% FBS, and Penicillin-Streptomycin-Glutamine were plated in pre-spotted 384-well plates (Greiner, Catalog #781076) on the BioTEK EL406 liquid dispenser with a 5 μL dispensing cassette (BioTek 7170011). The plates were incubated at 37° C., 5% CO2 for 4 days before addition of CellTiter-Glo (CTG) reagent and measurement of luminescence signal. EC50 values were defined as the compound concentration that causes a 50% decrease in luminescence signal and were calculated using a sigmoidal dose-response model to generate curve fits.

[2] = biological target: GDP-loaded KRAS G12D (Homo sapiens, UniProt P01116, G12D); experiment: KRAS G12D (GDP) biochemical assay, TR-FRET probe displacement; assay type: binding; conditions: 0.5 nM enzyme, 30 min pre-incubation, 2 h incubation, TR-FRET ratio; read-out: G12D IC50
Protocol: Example A. KRAS G12D (GDP) Biochemical Assay
Compounds were tested for binding to GDP-loaded KRAS G12D in a 384-well assay format using a TR-FRET probe displacement assay in buffer consisting of 50 mM Hepes (pH 7.4), 150 mM NaCl, 5 mM MgCl2 and 0.005% Tween-20. […] Compounds were serially diluted (1:3) in DMSO. The LabCyte ECHO Acoustic dispenser system was used to pre-spot the assay plates (384-well Non-Binding Surface plates, Corning, Catalog #3824) with 50 nL of compound. The compounds were pre-incubated with 5 μL of 2× final enzyme concentration for 30 minutes before adding 5 μL of 2× final concentration of Eu-streptavidin and TR-FRET probe (10 μL final reaction volume). The plates were incubated at room temperature for 2 hours before measuring TR-FRET ratio on the Envision plate reader. IC50 values were defined as the compound concentration that causes a 50% decrease in TR-FRET ratio and were calculated using a sigmoidal dose-response model to generate curve fits.

GDP-loaded KRAS G12D, sequence (P01116 1-188 isoform P01116-2 G12D): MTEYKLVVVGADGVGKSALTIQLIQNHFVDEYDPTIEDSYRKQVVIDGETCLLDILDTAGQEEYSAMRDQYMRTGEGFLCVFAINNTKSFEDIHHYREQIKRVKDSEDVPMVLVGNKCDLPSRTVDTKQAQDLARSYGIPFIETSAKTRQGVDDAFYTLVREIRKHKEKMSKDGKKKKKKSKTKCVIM

| Structure (SMILES) | EC50 ([1]; 96 h) | IC50 [2] | EC50 [1] |
| --- | --- | --- | --- |
| C#Cc1c(F)ccc2cc(O)cc(-c3c(F)c4c5c(nc(OC[C@@]67CCCN6C[C@H](F)C7)nc5c3F)N3C[C@H]5CC[C@H](N5)[C@H]3CCC4)c12 (atropisomer, axis not shown; (aR)) [Example 28-P, (R)-4-((1S,4R,15aR)-10,12-difluoro-8-(((2R,7aS)-2-fluorotetrahydro-1H-pyrrolizin-7a(5H)-yl)methoxy)-2,3,4,5,13,14,15,15a-octahydro-1H-1,4-epiminoazepino[1′,2′:1,8]azocino[2,3,4-de]quinazolin-11-yl)-5-ethynyl-6-fluoronaphthalen-2-ol] | 0.13 nM | 0.07 nM | – |
| C#Cc1c(F)ccc2cc(O)cc(-c3c(F)c4c5c(nc(OC[C@]6(C)CN(C)CC[C@@H]6C(F)F)nc5c3F)N3C[C@H]5CC[C@H](N5)[C@H]3CCC4)c12 (atropisomer, axis not shown; (aR)) [Example 78-P, (R)-4-((1S,4R,15aR)-8-(((3S,4S)-4-(difluoromethyl)-1,3-dimethylpiperidin-3-yl)methoxy)-10,12-difluoro-2,3,4,5,13,14,15,15a-octahydro-1H-1,4-epiminoazepino[1′,2′:1,8]azocino[2,3,4-de]quinazolin-11-yl)-5-ethynyl-6-fluoronaphthalen-2-ol] | 0.14 nM | 0.04 nM | – |
| C#Cc1c(F)ccc2cc(OCc3oc(=O)oc3C)cc(-c3nc4c5c(nc(OC[C@@]67CCCN6C[C@H](F)C7)nc5c3F)N3C[C@H]5CC[C@@H]([C@@H]3[C@@H](C)C4)N5Cc3oc(=O)oc3C)c12 [Example 2, 4-(((5-ethynyl-6-fluoro-4-((5S,5aS,6S,9R)-1-fluoro-12-(((2R,7aS)-2-fluorotetrahydro-1H-pyrrolizin-7a(5H)-yl)methoxy)-5-methyl-14-((5-methyl-2-oxo-1,3-dioxol-4-yl)methyl)-4,5,5a,6,7,8,9,10-octahydro-3,10a,11,13,14-pentaaza-6,9-methanonaphtho[1,8-ab]heptalen-2-yl)naphthalen-2-yl)oxy)methyl)-5-methyl-1,3-dioxol-2-one] | 0.24 nM | 40 nM | – |
| C#Cc1c(F)ccc2cccc(-c3nc4c5c(nc(OC[C@@]67CCCN6C[C@H](F)C7)nc5c3F)N3C[C@H]5CC[C@@H]([C@H]3CCC4)N5Cc3oc(=O)oc3-c3ccccc3)c12 [Example 4, 4-(((6aR,7S,10R)-2-(8-ethynyl-7-fluoronaphthalen-1-yl)-1-fluoro-13-(((2R,7aS)-2-fluorotetrahydro-1H-pyrrolizin-7a(5H)-yl)methoxy)-5,6,6a,7,8,9,10,11-octahydro-4H-3,11a,12,14,15-pentaaza-7,10-methanocyclohepta[4,5]cycloocta[1,2,3-de]naphthalen-15-yl)methyl)-5-phenyl-1,3-dioxol-2-one] | 2.3 nM | 3.3 nM | – |
| C#Cc1c(F)ccc2cccc(-c3nc4c5c(nc(OC[C@@]67CCCN6C[C@H](F)C7)nc5c3F)N3C[C@H]5CC[C@@H]([C@H]3CCC4)N5Cc3c(C)oc(=O)n3C)c12 [Example 5, 4-(((6aR,7S,10R)-2-(8-ethynyl-7-fluoronaphthalen-1-yl)-1-fluoro-13-(((2R,7aS)-2-fluorotetrahydro-1H-pyrrolizin-7a(5H)-yl)methoxy)-5,6,6a,7,8,9,10,11-octahydro-4H-3,11a,12,14,15-pentaaza-7,10-methanocyclohepta[4,5]cycloocta[1,2,3-de]naphthalen-15-yl)methyl)-3,5-dimethyloxazol-2(3H)-one] | 78 nM | 4.7 nM | – |
| C#Cc1c(F)ccc2cc(O)cc(-c3nc4c5c(nc(OCC67CCCN6C(COC(C(F)(F)F)(C(F)(F)F)C(F)(F)F)CC7)nc5c3F)N3CC5CCC(C3CC4)N5Cc3oc(=O)oc3C)c12 [Example 68, 4-(((8aR,9S,12R)-5-(8-ethynyl-7-fluoro-3-hydroxynaphthalen-1-yl)-4-fluoro-2-(((3S,7aS)-3-(((1,1,1,3,3,3-hexafluoro-2-(trifluoromethyl)propan-2-yl)oxy)methyl)tetrahydro-1H-pyrrolizin-7a(5H)-yl)methoxy)-7,8,8a,9,10,11,12,13-octahydro-1,3,6,13a,14-pentaaza-9,12-methanonaphtho[1,8-ab]heptalen-14-yl)methyl)-5-methyl-1,3-dioxol-2-one] | – | – | 0.65 nM |
| C#Cc1c(F)ccc2cc(N)cc(-c3nc4c5c(nc(OC[C@@]67CCCN6C[C@H](F)C7)nc5c3F)N3C[C@H]5CC[C@@H]([C@H]3CCC4)N5Cc3oc(=O)oc3-c3ccccc3)c12 [Example 69, 4-(((6aR,7S,10R)-2-(3-amino-8-ethynyl-7-fluoronaphthalen-1-yl)-1-fluoro-13-(((2R,7aS)-2-fluorotetrahydro-1H-pyrrolizin-7a(5H)-yl)methoxy)-5,6,6a,7,8,9,10,11-octahydro-4H-3,11a,12,14,15-pentaaza-7,10-methanocyclohepta[4,5]cycloocta[1,2,3-de]naphthalen-15-yl)methyl)-5-phenyl-1,3-dioxol-2-one] | 0.48 nM | – | – |
| C#Cc1c(F)ccc2cc(NCc3oc(=O)oc3C)cc(-c3nc4c5c(nc(OC[C@@]67CCCN6C[C@H](F)C7)nc5c3F)N3C[C@H]5CC[C@@H]([C@H]3CCC4)N5Cc3oc(=O)oc3C)c12 [Example 70, 4-(((5-ethynyl-6-fluoro-4-((6aR,7S,10R)-1-fluoro-13-(((2R,7aS)-2-fluorotetrahydro-1H-pyrrolizin-7a(5H)-yl)methoxy)-15-((5-methyl-2-oxo-1,3-dioxol-4-yl)methyl)-5,6,6a,7,8,9,10,11-octahydro-4H-3,11a,12,14,15-pentaaza-7,10-methanocyclohepta[4,5]cycloocta[1,2,3-de]naphthalen-2-yl)naphthalen-2-yl)amino)methyl)-5-methyl-1,3-dioxol-2-one] | 0.31 nM | – | – |
| C#Cc1c(F)ccc2cc(O)cc(-c3nc4c5c(nc(OC[C@@]67CCCN6C[C@H](F)C7)nc5c3F)N3C[C@H]5CC[C@@H]([C@H]3CCC4)N5Cc3oc(=O)oc3-c3ccccc3)c12 [Example 72, 4-(((6aR,7S,10R)-2-(8-ethynyl-7-fluoro-3-hydroxynaphthalen-1-yl)-1-fluoro-13-(((2R,7aS)-2-fluorotetrahydro-1H-pyrrolizin-7a(5H)-yl)methoxy)-5,6,6a,7,8,9,10,11-octahydro-4H-3,11a,12,14,15-pentaaza-7,10-methanocyclohepta[4,5]cycloocta[1,2,3-de]naphthalen-15-yl)methyl)-5-phenyl-1,3-dioxol-2-one] | 0.11 nM | – | – |
| C#Cc1c(F)ccc2cc(O)cc(-c3nc4c5c(nc(OC[C@]6(C)CN(C)CC[C@@H]6C(F)F)nc5c3F)N3C[C@H]5CC[C@@H]([C@H]3CCC4)N5Cc3oc(=O)oc3C)c12 [Example 74, 4-(((6aR,7S,10R)-13-(((3S,4S)-4-(difluoromethyl)-1,3-dimethylpiperidin-3-yl)methoxy)-2-(8-ethynyl-7-fluoro-3-hydroxynaphthalen-1-yl)-1-fluoro-5,6,6a,7,8,9,10,11-octahydro-4H-3,11a,12,14,15-pentaaza-7,10-methanocyclohepta[4,5]cycloocta[1,2,3-de]naphthalen-15-yl)methyl)-5-methyl-1,3-dioxol-2-one] | 0.06 nM | – | – |
| [2H]C([2H])([2H])N1CC[C@H](C(F)F)[C@](C)(C([2H])([2H])Oc2nc3c4c(nc(-c5cc(O)cc6ccc(F)c(C#C)c56)c(F)c4n2)CCC[C@@H]2[C@@H]4CC[C@H](CN32)N4Cc2oc(=O)oc2C)C1 [Example 75, 4-(((6aR,7S,10R)-13-(((3S,4S)-4-(difluoromethyl)-3-methyl-1-(methyl-d3)piperidin-3-yl)methoxy-d2)-2-(8-ethynyl-7-fluoro-3-hydroxynaphthalen-1-yl)-1-fluoro-5,6,6a,7,8,9,10,11-octahydro-4H-3,11a,12,14,15-pentaaza-7,10-methanocyclohepta[4,5]cycloocta[1,2,3-de]naphthalen-15-yl)methyl)-5-methyl-1,3-dioxol-2-one] | 0.08 nM | – | – |
| C#Cc1c(F)ccc2cc(N)cc(-c3nc4c5c(nc(OC[C@]6(C)CN(C)CC[C@@H]6C(F)F)nc5c3F)N3C[C@H]5CC[C@@H]([C@H]3CCC4)N5Cc3oc(=O)oc3C)c12 [Example 76, 4-(((6aR,7S,10R)-2-(3-amino-8-ethynyl-7-fluoronaphthalen-1-yl)-13-(((3S,4S)-4-(difluoromethyl)-1,3-dimethylpiperidin-3-yl)methoxy)-1-fluoro-5,6,6a,7,8,9,10,11-octahydro-4H-3,11a,12,14,15-pentaaza-7,10-methanocyclohepta[4,5]cycloocta[1,2,3-de]naphthalen-15-yl)methyl)-5-methyl-1,3-dioxol-2-one] | 0.89 nM | – | – |
